According to patent publication US8993542B2, “Methods of treating viral infections” (priority 2008, dated 2015):

Tests used:
HIV-1IIIB = test: Two-drug combination antiviral assay in CEM cells (CPE), MacSynergy II; assay type: cell-based; details: in combination with CMX157, CEM-SS cells, 95% confidence
HIV = test: microbe, parasite or virus in culture; assay type: cell-based
[1] = Human immunodeficiency virus 1, PANEL 2, WT
[2] = Human immunodeficiency virus 1, PANEL 3, 6 TAMs, no 184
[3] = Human immunodeficiency virus 1, PANEL 6, 6 TAMs + 184
[4] = Human immunodeficiency virus 1, PANEL 7, 184V
[5] = Human immunodeficiency virus 1, PANEL 9, 69ins, no 184
[6] = Human immunodeficiency virus 1, PANEL 12, 69ins + 184
[7] = Human immunodeficiency virus 1, PANEL 14, 65R, no 184
[8] = Human immunodeficiency virus 1, PANEL 15, 65R + 184V
[9] = Human immunodeficiency virus 1, PANEL 17, L74V
[10] = Human immunodeficiency virus 1, PANEL 19, L74V + M184V
[11] = Human immunodeficiency virus 1, PANEL 26, 151M, no 184
[12] = Human immunodeficiency virus 1, PANEL 28, 151M + 184
[13] = Human immunodeficiency virus 1, PANEL 29, L74V − SDM
[14] = Human immunodeficiency virus 1, PANEL 30, M184V − SDM
[15] = Human immunodeficiency virus 1, PANEL 31, K65R − SDM
[16] = Human immunodeficiency virus 1, PANEL 33, T215Y
[17] = Human immunodeficiency virus 1, PANEL 34, T215Y + M184V
[18] = Human immunodeficiency virus 1, PANEL 35, M41L + T215Y
[19] = Human immunodeficiency virus 1, PANEL 37, M41L + T215Y + M184V
[20] = Human immunodeficiency virus 1, PANEL 38, M41L + L210W + T215Y
[21] = Human immunodeficiency virus 1, PANEL 39, M41L + L210W + T215Y
[22] = Human immunodeficiency virus 1, PANEL 40, M41L + L210W + T215Y + M184V
[23] = Human immunodeficiency virus 1, PANEL 41, M41L + L210W + T215Y + M184V
[24] = Human immunodeficiency virus 1, PANEL 42, D67N + K70R
[25] = Human immunodeficiency virus 1, PANEL 44, D67N + K70R + T215F + K219E + M184V
[26] = Human immunodeficiency virus 1, PANEL 45, L210W + T215Y
[27] = Human immunodeficiency virus 1, PANEL 46, D67N + K70E
[28] = Human immunodeficiency virus 1, PANEL 47, D67N + K70E + M184V
[29] = Human immunodeficiency virus 1, PANEL 48, K70E + M184V

## Cc1cn([C@H]2C[C@H](N=[N+]=[N-])[C@@H](CO)O2)c(=O)[nH]c1=O [ZDV, 3′-azido-2′,3′-dideoxythymdine]
HIV-1IIIB
  Antagonism Volume, Result 1: −67.8 nM^2 %, μM^2 % or nMμM %
  Antagonism Volume, Result 2: 0 nM^2 %, μM^2 % or nMμM %
  Antagonism Volume, Result 3: −0.77 nM^2 %, μM^2 % or nMμM %
  Mean Antagonism Volume (n = 3): −21.7 nM^2 %, μM^2 % or nMμM %
  Mean Synergy Volume (n = 3): 11.5 nM^2 %, μM^2 % or nMμM %
  Synergy Volume, Result 1: 5.01 nM^2 %, μM^2 % or nMμM %
  Synergy Volume, Result 2: 32.7 nM^2 %, μM^2 % or nMμM %
  Synergy Volume, Result 3: 0 nM^2 %, μM^2 % or nMμM %
HIV; [1]
  IC50: 17 nM
HIV; [2]
  IC50: 9560 nM
HIV; [3]
  IC50: 1610 nM
HIV; [4]
  IC50: 17 nM
HIV; [5]
  IC50: > 25000 nM
HIV; [6]
  IC50: 8710 nM
HIV; [7]
  IC50: 12 nM
HIV; [8]
  IC50: 11 nM
HIV; [9]
  IC50: 11 nM
HIV; [10]
  IC50: 6 nM
HIV; [11]
  IC50: 2540 nM
HIV; [12]
  IC50: 4180 nM
HIV; [13]
  IC50: 14 nM
HIV; [14]
  IC50: 9 nM
HIV; [15]
  IC50: 14 nM
HIV; [16]
  IC50: 1050 nM
HIV; [17]
  IC50: 71 nM
HIV; [18]
  IC50: 557 nM
HIV; [19]
  IC50: 177 nM
HIV; [20]
  IC50: 2720 nM
HIV; [21]
  IC50: 2680 nM
HIV; [22]
  IC50: 87 nM
HIV; [23]
  IC50: 107 nM
HIV; [24]
  IC50: 770 nM
HIV; [25]
  IC50: 192 nM
HIV; [26]
  IC50: 207 nM
HIV; [27]
  IC50: 6 nM
HIV; [28]
  IC50: 4 nM
HIV; [29]
  IC50: 4 nM

## Cc1cn([C@H]2C=C[C@@H](CO)O2)c(=O)[nH]c1=O [d4T, 2′,3′-didehydro-3′-deoxythymidine]
HIV-1IIIB
  Antagonism Volume, Result 1: 0 nM^2 %, μM^2 % or nMμM %
  Antagonism Volume, Result 2: 0 nM^2 %, μM^2 % or nMμM %
  Antagonism Volume, Result 3: −1.83 nM^2 %, μM^2 % or nMμM %
  Mean Antagonism Volume (n = 3): −0.61 nM^2 %, μM^2 % or nMμM %
  Mean Synergy Volume (n = 3): 15.2 nM^2 %, μM^2 % or nMμM %
  Synergy Volume, Result 1: 4.47 nM^2 %, μM^2 % or nMμM %
  Synergy Volume, Result 2: 40.6 nM^2 %, μM^2 % or nMμM %
  Synergy Volume, Result 3: 0.39 nM^2 %, μM^2 % or nMμM %
HIV; Human immunodeficiency virus 1, PANEL 1, WT
  IC50: 510 nM
HIV; [1]
  IC50: 480 nM
HIV; [2]
  IC50: 2170 nM
HIV; [3]
  IC50: 1350 nM
HIV; [4]
  IC50: 460 nM
HIV; [5]
  IC50: 6390 nM
HIV; [6]
  IC50: 6790 nM
HIV; [7]
  IC50: 770 nM
HIV; [8]
  IC50: 590 nM
HIV; [9]
  IC50: 600 nM
HIV; [10]
  IC50: 420 nM
HIV; [11]
  IC50: 5540 nM
HIV; [12]
  IC50: 4220 nM
HIV; [13]
  IC50: 630 nM
HIV; [14]
  IC50: 400 nM
HIV; [15]
  IC50: 830 nM
HIV; [16]
  IC50: 830 nM
HIV; [17]
  IC50: 650 nM
HIV; [18]
  IC50: 840 nM
HIV; [19]
  IC50: 860 nM
HIV; [20]
  IC50: 1220 nM
HIV; [21]
  IC50: 1090 nM
HIV; [22]
  IC50: 880 nM
HIV; [23]
  IC50: 1050 nM
HIV; [24]
  IC50: 780 nM
HIV; [25]
  IC50: 790 nM
HIV; [26]
  IC50: 940 nM
HIV; [27]
  IC50: 560 nM
HIV; [28]
  IC50: 420 nM
HIV; [29]
  IC50: 390 nM
HIV; PANEL 1, WT
  IC50 Fold Change: 0.86
HIV; PANEL 2, WT
  IC50 Fold Change: 0.81
HIV; PANEL 3, 6 TAMs, no 184
  IC50 Fold Change: 3.66
HIV; PANEL 6, 6 TAMs + 184
  IC50 Fold Change: 2.28
HIV; PANEL 7, 184V
  IC50 Fold Change: 0.77
HIV; PANEL 9, 69ins, no 184
  IC50 Fold Change: 11.00
HIV; PANEL 12, 69ins + 184
  IC50 Fold Change: 11.00
HIV; PANEL 14, 65R, no 184
  IC50 Fold Change: 1.30
HIV; PANEL 15, 65R + 184V
  IC50 Fold Change: 0.99
HIV; PANEL 17, L74V
  IC50 Fold Change: 1.01
HIV; PANEL 19, L74V + M184V
  IC50 Fold Change: 0.71
HIV; PANEL 26, 151M, no 184
  IC50 Fold Change: 9.33
HIV; PANEL 28, 151M + 184
  IC50 Fold Change: 7.10
HIV; PANEL 29, L74V − SDM
  IC50 Fold Change: 1.07
HIV; PANEL 30, M184V − SDM
  IC50 Fold Change: 0.68
HIV; PANEL 31, K65R − SDM
  IC50 Fold Change: 1.40
HIV; PANEL 33, T215Y
  IC50 Fold Change: 1.40
HIV; PANEL 34, T215Y + M184V
  IC50 Fold Change: 1.10
HIV; PANEL 35, M41L + T215Y
  IC50 Fold Change: 1.41
HIV; PANEL 37, M41L + T215Y + M184V
  IC50 Fold Change: 1.46
HIV; PANEL 38, M41L + L210W + T215Y
  IC50 Fold Change: 2.06
HIV; PANEL 39, M41L + L210W + T215Y
  IC50 Fold Change: 1.84
HIV; PANEL 40, M41L + L210W + T215Y + M184V
  IC50 Fold Change: 1.48
HIV; PANEL 41, M41L + L210W + T215Y + M184V
  IC50 Fold Change: 1.77
HIV; PANEL 42, D67N + K70R
  IC50 Fold Change: 1.31
HIV; PANEL 44, D67N + K70R + T215F + K219E + M184V
  IC50 Fold Change: 1.32
HIV; PANEL 45, L210W + T215Y
  IC50 Fold Change: 1.58
HIV; PANEL 46, D67N + K70E
  IC50 Fold Change: 0.94
HIV; PANEL 47, D67N + K70E + M184V
  IC50 Fold Change: 0.70
HIV; PANEL 48, K70E + M184V
  IC50 Fold Change: 0.65
